# Patent US11548913B2, “Therapeutic compositions including peptides and uses thereof” (Stealth BioTherapeutics Inc., priority 2015, dated 2023)
# Entries after “also recorded” stand apart in the source; their conditions may differ. Square brackets hold non-standard residues; d marks the D form. Peptide text beside a SMILES is read from it. Dmt = Cc1cc(O)cc(C)c1C[C@H](N)C(=O)O
# What was measured:
# [1] = tested on: Excised Sprague-Dawley rat hearts; test: Modified Langendorff rat heart model, ischemia/reperfusion with peptide in the reperfusion buffer (Example 1); conditions: 1 μM peptide in Krebs buffer during 2 hours reperfusion after 20 min global no-flow ischemia; compared to controls
# Method: (§1) The Langendorff rodent heart model is widely employed in studies of myocardial function and responses to injury (e.g., ischemia). For whole-heart studies, male Sprague-Dawley rats (7-9 weeks old) were injected with pentobarbital (35 mg/kg, ip injection) and hearts were excised with midline thoracotomy. The aortas were secured around a cannula of a modified Langendorff apparatus and retrogradely perfused (perfusion pressure of 75 mm Hg) with a modified Krebs-Henseleit buffer containing (in mM): 118 NaCl, 24 NaHCO3, 4.75 KCl, 1.2 KH2PO4, 1.2 MgSO4, 2.0 CaCl2, and 10 glucose (gassed with 95/5% O2/CO2). Hearts were bathed in a buffer-filled perfusion chamber maintained at 37° C. for the duration of the experiments. Following the initiation of perfusion, hearts were instrumented for the simultaneous observation of mechanical and electrical function. A buffer-filled latex balloon (size 5, Harvard Apparatus, Holliston, Mass., USA), calibrated at the beginning of each day using a digital manometer, was inserted into the left ventricle (via the mitral valve) for the measurement of left ventricular developed pressure (LVDP), with balloon volume adjusted to establish a diastolic pressure of 5-8 mm Hg. Three electrodes were placed into the buffer filled perfusion chamber for the measurement of the volume-conducted electrocardiogram (ECG). Coronary flow rates were monitored constantly with a flow probe (Transconic Systems, Ithaca, N.Y., USA) connected in series with the perfusion line, and normalized to heart wet weight (in grams) at the end of each experiment. All physiological parameters were continuously monitored and stored on a personal computer using commercially available software (Chart, AD Instruments, Colorado Springs, Colo., USA). Heart rate was calculated using the LVDP trace, and maximal rates of contraction(+dP/dt) and relaxation (−dP/dt) were calculated using the derivative of the LVDP trace.
# Following a 10 minute baseline period, ischemia/reperfusion was initiated. Hearts were exposed to global no-flow ischemia by stopping perfusion for 20 min. At the end of the index ischemia, static buffer from the perfusion lines was washed out (via an accessory port proximal to the aortic cannula), and reperfusion ensued for 2 hours either with Krebs buffer alone (control) or Krebs buffer containing an experimental peptide at a concentration of 1 μM. Peptides tested included D-Arg-D-Dmt-D-Lys-L-Phe-NH2 (SBT-46), D-Arg-L-DMT-L-Ala-L-Phe-NH2 (SBT-68), (Ac)-D-Arg-L-DMT-L-Lys-L-Phe-NH2 (SBT-85), D-Arg-L-Dmt-L-His-L-Phe-NH2(SBT-100), D-Arg-L-DMT-L-Orn-L-Phe-NH2 (SBT-102), D-Orn-L-DMT-L-Lys-L-Phe-NH2(SBT-131), D-(Amidine)Arg(propylamine)-L-DMT-L-Lys-L-Phe-NH2 (SBT-140), and D-Arg(butylamidine analog)-L-DMT-L-Lys-L-Phe-NH2(SBT-149). At the end of reperfusion, the left ventricle was dissected, sliced into 5 mm-thick slices, incubated in 1% triphenyltetrazolium chloride (TTC) for 10 min (37° C.) and digitally photographed for subsequent infarct size analysis. Infarct size was expressed as a percentage of the left ventricle (% area at risk (AAR))(calculated using ImageJ software, NIH, Bethesda, Md., USA).
# excised rat hearts = test: Modified Langendorff rat heart model, peptide pre-treatment before ischemia/reperfusion (Example 2); conditions: hearts bathed 2 hours in 1 μM peptide before 20 min ischemia and 2 hours reperfusion; vs SBT-46, SBT-102 and controls; anticipated
# Method: as §1, with “are” for “were”, “USA), which is” for “USA),”, “is” for “was”
# Prior to the initiation of ischemia/reperfusion, the excised rat hearts are bathed in buffer containing an experimental peptide at a concentration of 1 μM or buffer alone (control) for two hours. The experimental peptide is selected from D-Arg-D-Dmt-D-Lys-L-Phe-NH2 (SBT-46), D-Arg-L-DMT-L-Ala-L-Phe-NH2 (SBT-68), (Ac)-D-Arg-L-DMT-L-Lys-L-Phe-NH2 (SBT-85), D-Arg-L-Dmt-L-His-L-Phe-NH2(SBT-100), D-Arg-L-DMT-L-Orn-L-Phe-NH2 (SBT-102), D-Orn-L-DMT-L-Lys-L-Phe-NH2(SBT-131), D-(Amidine)Arg(propylamine)-L-DMT-L-Lys-L-Phe-NH2(SBT-140), and D-Arg(butylamidine analog)-L-DMT-L-Lys-L-Phe-NH2 (SBT-149). Following a 10 minute baseline period, ischemia/reperfusion is initiated. Hearts are exposed to global no-flow ischemia by stopping perfusion for 20 min. At the end of the index ischemia, static buffer from the perfusion lines is washed out (via an accessory port proximal to the aortic cannula), and reperfusion ensues for 2 hours with Krebs buffer. At the end of reperfusion, the left ventricle is dissected, sliced into 5 mm-thick slices, incubated in 1% triphenyltetrazolium chloride (TTC) for 10 min (37° C.) and digitally photographed for subsequent infarct size analysis. Infarct size is expressed as a percentage of the left ventricle (% area at risk (AAR))(calculated using ImageJ software, NIH, Bethesda, Md., USA).
smiles,measurement,setting,value
"CC(=O)N[C@H](CCCNC(=N)N)C(=O)N[C@@H](Cc1c(C)cc(O)cc1C)C(=O)N[C@@H](CCCCN)C(=O)N[C@@H](Cc1ccccc1)C(N)=O [SBT-85, (Ac)-D-Arg-L-DMT-L-Lys-L-Phe-NH2] (Ac-[dR][Dmt]KF-NH2)",attenuation of cardiac ischemia injury and ischemia-reperfusion injury,[1],able to attenuate cardiac ischemia injury and ischemia-reperfusion injury; also recorded: attenuation of cardiac ischemia-reperfusion injury
same,infarct size expressed as a percentage of area at risk (AAR),[1],reduced infarct size
same,left ventricular developed pressure (LVDP),[1],increased LVDP
same,maximal rates of contraction (+dP/dt),[1],increased maximal rates of contraction
same,maximal rates of relaxation (−dP/dt),[1],increased maximal rates of relaxation
same,LVDP,excised rat hearts,increased LVDP
same,infarct size,excised rat hearts,reduced infarct size
same,maximal rates of contraction (+dP/dt),excised rat hearts,increased maximal rates of contraction
same,maximal rates of relaxation (−dP/dt),excised rat hearts,increased maximal rates of relaxation
"Cc1cc(O)cc(C)c1C[C@H](NC(=O)[C@@H](CCCN)NC(=N)N)C(=O)N[C@@H](CCCCN)C(=O)N[C@@H](Cc1ccccc1)C(N)=O [SBT-140, D-(Amidine)Arg(propylamine)-L-DMT-L-Lys-L-Phe-NH2]",attenuation of cardiac ischemia injury and ischemia-reperfusion injury,[1],able to attenuate cardiac ischemia injury and ischemia-reperfusion injury; also recorded: attenuation of cardiac ischemia-reperfusion injury
same,infarct size expressed as a percentage of area at risk (AAR),[1],reduced infarct size
same,left ventricular developed pressure (LVDP),[1],increased LVDP
same,maximal rates of contraction (+dP/dt),[1],increased maximal rates of contraction
same,maximal rates of relaxation (−dP/dt),[1],increased maximal rates of relaxation
same,LVDP,excised rat hearts,increased LVDP
same,infarct size,excised rat hearts,reduced infarct size
same,maximal rates of contraction (+dP/dt),excised rat hearts,increased maximal rates of contraction
same,maximal rates of relaxation (−dP/dt),excised rat hearts,increased maximal rates of relaxation
